Consider three compounds from patent publication US5789386A, “Fluorine-containing anthracycline derivatives having hydroxyl groups(s) mono- or di-o-aminoalkanoylated in the sugar moiety thereof” (priority 1995, dated 1998).

A word on the IC50: it is the midpoint of a concentration-inhibition curve. Read a low IC50 as greater potency in that assay.

Values after ≈ are worked out from the molar mass of the structure shown. Where two headings read alike, the source gives them in different places.

For one series, the system named is Leukemia L-1210 cells. The experiment in a line: Antitumor test against leukemia L-1210 in CDF1 mice (T/C, %). Type of series: in vivo, mouse (CDF1). Conditions: for % Increase in life-span (T/C, %): 9 days; for percentage (%) of increase in life-span (T/C, %) at maximum: 2.5 mg/kg/day to 5 mg/kg/day; for percentage (%) of increase in life-span (T/C, %) at maximum / development of toxicity (in words): L-1210 mice; for development of toxicity (in words): daunomycin, adriamycin 2.5 mg/kg/day to 5 mg/kg/day. How it is done: Thus, to evaluate the antitumor effects of the new compounds according to the first aspect of this invention against experimental tumors in animals, CDF1 mice (four mice per group) were intraperitoneally transplanted with cells of Leukemia L-1210 at an amount of 1×10^5 cells/mouse. Since an elapsed time of 24 hours from the transplantation of the leukemia cells, a test compound according to this invention was administered intraperitoneally to the mice under test for 9 consecutive days once per day. […] While, mice of the control group (the untreated group) were administered with only physiological saline after the transplantation of the L-1210 cells. During the observation period, the numbers of the surviving mice in the treated group and in the control group were counted, and the mean survival days of mice in the treated group and in the control group were then calculated. From the mean survival day (C) of the untreated mice of the control group and the mean survival day (T) of the treated mice of the treated group, there were evaluated percentages (%) of the increase in the life-span of the treated mice, as T/C %. For a comparison purpose, 7-O-(2,6-dideoxy-2-fluoro-α-L-talopyranosyl)daunomycinone (abbreviation: FT-DM); 7-O-(2,6-dideoxy-2-fluoro-α-L-talopyranosyl)adriamycinone(abbreviation: FT-ADM); and adriamycin were also tested in the same manner as above. Incidentally, the mean survival day of mice of the control group (the untreated group) was amounting to 8 to 9 days, and the mean survival day of mice of the comparative groups having received the administration of adriamycin was varying dependently on the dosage of adriamycin.
Notes; Asterisks (*) indicate that development of toxicity such as
toxicityrelated death or a body weight loss was observed on the
corresponding mice tested.

Series [1] concerns mouse leukemia, P388 cells. Briefly: In vitro growth inhibition of P388 cells, 72 hours. The class given is cell-based. Conditions: P388, 72 h.
Series [2] concerns adriamycin-resistant P388 cells (P388/ADR). Briefly: In vitro growth inhibition of adriamycin-resistant P388 cells (P388/ADR), 72 hours. Conditions: Mus musculus, 72 h. Type of series: cell-based.
The conditions of series [3]: cited from earlier work.
In a further series the test system is experimental tumors. Conditions: test animals; background, earlier applications; cited from earlier work.
The conditions of series [4]: low dosages which give high antitumor effects; test animals; cited from earlier work.

Regarding `COc1cccc2c1C(=O)c1c(O)c3c(c(O)c1C2=O)C[C@@](O)(C(=O)CO)C[C@@H]3O[C@H]1C[C@H](N)[C@H](O)[C@H](C)O1` [Adriamycin, adriamycin, reference compound], the “% Increase in life-span (T/C, %)” value in the series on Leukemia L-1210 cells (0.15 mg/kg/day i.p.) turned out to be 140%; with Leukemia L-1210 cells (0.3 mg/kg/day i.p., ">" = at least one of four mice survived 60 days or longer), 132%; with Leukemia L-1210 cells (0.6 mg/kg/day i.p., ">" = at least one of four mice survived 60 days or longer) it was 208%; in the series with Leukemia L-1210 cells (1.25 mg/kg/day i.p., ">" = at least one of four mice survived 60 days or longer), 330%; with Leukemia L-1210 cells (2.5 mg/kg/day i.p., ">" = at least one of four mice survived 60 days or longer), 273%; in the series with Leukemia L-1210 cells (5 mg/kg/day i.p., ">" = at least one of four mice survived 60 days or longer), 177%. Also, in the series on Leukemia L-1210 cells, the “percentage (%) of increase in life-span (T/C, %) at maximum” value is reported as “approximately 330%”. For the same compound, the “development of toxicity (in words)” value with Leukemia L-1210 cells is listed as “being accompanied by development of toxicity”. Further, the IC50 worked out at 0.033 µg/mL (≈ 0.0607 µM) in series [1] and 1.3 µg/mL (≈ 2.39 µM) in series [2]. Moreover, in series [3] (clinical use, many instances), the “serious side-effects (in words)” value is “serious side-effects such as leukocytopenia, alopecia, myocardiopathy and others”.

Turning to `COc1cccc2c1C(=O)c1c(O)c3c(c(O)c1C2=O)C[C@@](O)(C(C)=O)C[C@@H]3O[C@H]1C[C@H](N)[C@H](O)[C@H](C)O1` [daunomycin, reference compound], in the series with Leukemia L-1210 cells, the “percentage (%) of increase in life-span (T/C, %) at maximum” value was “approximately 330%” and the “development of toxicity (in words)” value is given as “being accompanied by development of toxicity”. Further, the “serious side-effects (in words)” value in series [3] (in vivo) is “serious side-effects such as leukocytopenia, alopecia, myocardiopathy and others”.

As to `COc1cccc2c1C(=O)c1c(O)c3c(c(O)c1C2=O)C[C@@](O)(C(=O)CO)C[C@@H]3O[C@H]1C[C@H](O)[C@H](O)[C@H](C(F)(F)F)O1` [formula (D), 7-O-(2,6-dideoxy-6,6,6-trifluoro-α-L-lyxo-hexopyranosyl)adriamycinone], the “anticancer or antitumor activity (in words)” value in the series on experimental tumors is on record as “high anticancer or antitumor activity”. Further, the “development of acute toxicity (in words)” value in series [4] is listed as “development of acute toxicity does not take place”.
